Reference: US11083725B2 (priority 2014, dated 2021)

Test system: NHBE cells
Test: Biolog metabolic array: substrate use by NHBE cells with or without CA09 infection
Assay type: cell-based, human
Conditions: for Substrate use, 590 nm absorbance normalized to zero hour, 1 hr: Biolog PMM2, 1 hr; for Substrate use, 590 nm absorbance normalized to zero hour, 5 hr: Biolog PMM2, 5 hr; for Substrate use, 590 nm absorbance normalized to zero hour, 7 hr: Biolog PMM2, 7 hr
[1] = Control (uninfected) NHBE cells
[2] = Virus (CA09, MOI 1) infected NHBE cells
[3] = Virus (CA09-infected, MOI 1) NHBE cells
[4] = Virus (CA09-infected NHBE cells, MOI 1)
[5] = Virus: CA09-infected NHBE cells, MOI 1, Biolog PMM2

OC[C@H]1O[C@H](O[C@H]2[C@H](O)[C@@H](O)[C@H](O)O[C@@H]2CO)[C@H](O)[C@@H](O)[C@@H]1O [Maltose]
590 nm absorbance normalized to zero hour (substrate use), 1 hr [1]: 1.07
590 nm absorbance normalized to zero hour (substrate use), 2 hr [1]: 1.04
590 nm absorbance normalized to zero hour (substrate use), 3 hr [1]: 1.27
590 nm absorbance normalized to zero hour (substrate use), 4 hr [1]: 1.22
590 nm absorbance normalized to zero hour (substrate use), 6 hr [1]: 1.72
590 nm absorbance normalized to zero hour (substrate use), 8 hr [1]: 1.68
590 nm absorbance normalized to zero hour (substrate use), 9 hr [1]: 1.97
590 nm absorbance normalized to zero hour (substrate use), 10 hr [1]: 1.93
590 nm absorbance normalized to zero hour (substrate use), 11 hr [1]: 2.37
Substrate use, 590 nm absorbance normalized to zero hour, 1 hr [1]: 1.07
Substrate use, 590 nm absorbance normalized to zero hour, 5 hr [1]: 1.53
Substrate use, 590 nm absorbance normalized to zero hour, 7 hr [1]: 1.53
Substrate use, 590 nm absorbance normalized to zero hour, 1 hr [2]: 2.29
Substrate use, 590 nm absorbance normalized to zero hour, 5 hr [2]: 5.22
Substrate use, 590 nm absorbance normalized to zero hour, 7 hr [2]: 6.41
590 nm absorbance normalized to zero hour (substrate use), 1 hr [3]: 2.29
590 nm absorbance normalized to zero hour (substrate use), 2 hr [3]: 3.23
590 nm absorbance normalized to zero hour (substrate use), 3 hr [3]: 3.88
590 nm absorbance normalized to zero hour (substrate use), 4 hr [3]: 4.21
590 nm absorbance normalized to zero hour (substrate use), 6 hr [3]: 5.86
590 nm absorbance normalized to zero hour (substrate use), 8 hr [3]: 7.01
590 nm absorbance normalized to zero hour (substrate use), 9 hr [3]: 8.07
590 nm absorbance normalized to zero hour (substrate use), 10 hr [3]: 8.77
590 nm absorbance normalized to zero hour (substrate use), 11 hr [3]: 8.43

CC(O)C(C)O (centres unmarked) [2,3-Butanediol]
590 nm absorbance normalized to zero hour (substrate use), 1 hr [1]: 1.23
590 nm absorbance normalized to zero hour (substrate use), 2 hr [1]: 1.54
590 nm absorbance normalized to zero hour (substrate use), 3 hr [1]: 1.61
590 nm absorbance normalized to zero hour (substrate use), 4 hr [1]: 1.58
590 nm absorbance normalized to zero hour (substrate use), 6 hr [1]: 0.83
590 nm absorbance normalized to zero hour (substrate use), 8 hr [1]: 1.93
590 nm absorbance normalized to zero hour (substrate use), 9 hr [1]: 2.09
590 nm absorbance normalized to zero hour (substrate use), 10 hr [1]: 2.19
590 nm absorbance normalized to zero hour (substrate use), 11 hr [1]: 2.33
Substrate use, 590 nm absorbance normalized to zero hour, 1 hr [1]: 1.23
Substrate use, 590 nm absorbance normalized to zero hour, 5 hr [1]: 1.83
Substrate use, 590 nm absorbance normalized to zero hour, 7 hr [1]: 1.84
590 nm absorbance normalized to zero hour (substrate use), 1 hr [4]: 1.66
590 nm absorbance normalized to zero hour (substrate use), 2 hr [4]: 1.65
590 nm absorbance normalized to zero hour (substrate use), 3 hr [4]: 0.31
590 nm absorbance normalized to zero hour (substrate use), 4 hr [4]: 0.33
590 nm absorbance normalized to zero hour (substrate use), 5 hr [4]: 0.38
590 nm absorbance normalized to zero hour (substrate use), 6 hr [4]: 0.40
590 nm absorbance normalized to zero hour (substrate use), 7 hr [4]: 0.42
590 nm absorbance normalized to zero hour (substrate use), 8 hr [4]: 0.43
590 nm absorbance normalized to zero hour (substrate use), 9 hr [4]: 0.45
590 nm absorbance normalized to zero hour (substrate use), 10 hr [4]: 0.42
590 nm absorbance normalized to zero hour (substrate use), 11 hr [4]: 0.39
590 nm absorbance normalized to zero hour (substrate use), 1 hr [5]: 1.66
590 nm absorbance normalized to zero hour (substrate use), 2 hr [5]: 1.65
590 nm absorbance normalized to zero hour (substrate use), 3 hr [5]: 0.31
590 nm absorbance normalized to zero hour (substrate use), 4 hr [5]: 0.33
590 nm absorbance normalized to zero hour (substrate use), 5 hr [5]: 0.38
590 nm absorbance normalized to zero hour (substrate use), 6 hr [5]: 0.40
590 nm absorbance normalized to zero hour (substrate use), 7 hr [5]: 0.42
590 nm absorbance normalized to zero hour (substrate use), 8 hr [5]: 0.43
590 nm absorbance normalized to zero hour (substrate use), 9 hr [5]: 0.45
590 nm absorbance normalized to zero hour (substrate use), 10 hr [5]: 0.42
590 nm absorbance normalized to zero hour (substrate use), 11 hr [5]: 0.39

CC(=O)C(=O)O [Pyruvic Acid]
590 nm absorbance normalized to zero hour (substrate use), 1 hr [1]: 1.34
590 nm absorbance normalized to zero hour (substrate use), 2 hr [1]: 1.40
590 nm absorbance normalized to zero hour (substrate use), 3 hr [1]: 1.54
590 nm absorbance normalized to zero hour (substrate use), 4 hr [1]: 1.61
590 nm absorbance normalized to zero hour (substrate use), 6 hr [1]: 1.39
590 nm absorbance normalized to zero hour (substrate use), 8 hr [1]: 1.57
590 nm absorbance normalized to zero hour (substrate use), 9 hr [1]: 1.71
590 nm absorbance normalized to zero hour (substrate use), 10 hr [1]: 1.81
590 nm absorbance normalized to zero hour (substrate use), 11 hr [1]: 2.49
Substrate use, 590 nm absorbance normalized to zero hour, 1 hr [1]: 1.34
Substrate use, 590 nm absorbance normalized to zero hour, 5 hr [1]: 1.70
Substrate use, 590 nm absorbance normalized to zero hour, 7 hr [1]: 1.52
590 nm absorbance normalized to zero hour (substrate use), 1 hr [3]: 1.27
590 nm absorbance normalized to zero hour (substrate use), 2 hr [3]: 0.82
590 nm absorbance normalized to zero hour (substrate use), 3 hr [3]: 0.94
590 nm absorbance normalized to zero hour (substrate use), 4 hr [3]: 1.20
590 nm absorbance normalized to zero hour (substrate use), 5 hr [3]: 1.10
590 nm absorbance normalized to zero hour (substrate use), 6 hr [3]: 1.09
590 nm absorbance normalized to zero hour (substrate use), 7 hr [3]: 1.06
590 nm absorbance normalized to zero hour (substrate use), 8 hr [3]: 0.67
590 nm absorbance normalized to zero hour (substrate use), 9 hr [3]: 0.65
590 nm absorbance normalized to zero hour (substrate use), 10 hr [3]: 0.75
590 nm absorbance normalized to zero hour (substrate use), 11 hr [3]: 0.61
590 nm absorbance normalized to zero hour (substrate use), 1 hr [5]: 1.27
590 nm absorbance normalized to zero hour (substrate use), 2 hr [5]: 0.82
590 nm absorbance normalized to zero hour (substrate use), 3 hr [5]: 0.94
590 nm absorbance normalized to zero hour (substrate use), 4 hr [5]: 1.20
590 nm absorbance normalized to zero hour (substrate use), 5 hr [5]: 1.10
590 nm absorbance normalized to zero hour (substrate use), 6 hr [5]: 1.09
590 nm absorbance normalized to zero hour (substrate use), 7 hr [5]: 1.06
590 nm absorbance normalized to zero hour (substrate use), 8 hr [5]: 0.67
590 nm absorbance normalized to zero hour (substrate use), 9 hr [5]: 0.65
590 nm absorbance normalized to zero hour (substrate use), 10 hr [5]: 0.75
590 nm absorbance normalized to zero hour (substrate use), 11 hr [5]: 0.61
